Results taken from patent publication US6979686B1, “Substituted pyrazoles as p38 kinase inhibitors” (Pharmacia Corporation, priority 2001, dated 2005).
Read-outs that look alike come from different tables or passages of the source.

How the values were obtained:
human p38 kinase alpha = molecular target: T1, human p38 kinase alpha (Homo sapiens, UniProt Q16539); assay: p38 kinase in vitro assay, phosphorylation of biotinylated PHAS-I with 32P-ATP; type: biochemical; details: in vitro P38-alpha kinase inhibition; read-out: P38 alpha kinase IC50
T1 construct: GST (N, cleaved yes); made in house; host or cells: E. coli DH10B

[1] = system: TNF-α, U937 human histiocytic lymphoma cell line; assay: LPS stimulation of TNF production by U937 cells; type: cell-based; details: for U937 Cell % inhib @ conc. (uM): @ 1.0 uM; for IC50: read-out: U937 Cell IC50; for inhibition at 1 µM: U-937, @ 1.0 uM, read-out: U937 Cell % inhib @ conc.
Procedure: Maintenance and Differentiation of the U937 Human Histiocytic Lymphoma Cell Line:
Fifty million cells in 100 ml media were induced to terminal monocytic differentiation by 24 hour incubation with 20 ng/ml phorbol 12-myristate 13-acetate (Sigma). The cells were washed by centrifugation (200×g for 5 min) and resuspended in 100 ml fresh medium. After 24-48 hours, the cells were harvested, centrifuged, and resuspended in culture medium at 2 million cells/ml.
LPS Stimulation of TNF Production by U937 Cells:
Compounds were prepared as 10 mM stock solutions in DMSO and diluted in culture medium to yield a final DMSO concentration of 0.1% in the cell assay. LPS (E coli, 100 ng/ml final concentration) was then added at a volume of 0.02 ml. After 4 hour incubation at 37° C., the amount of TNF-α released in the culture medium was quantitated by ELISA. Inhibitory potency is expressed as IC50 (μM).
In vitro whole cell assay for measuring the ability of the compounds to inhibit TNF production in human U937 cells stimulated with LPS are shown in the column identified as: • “U937 Cell IC50, uM or % inhib @ conc., (uM)”

[2] = TNF production in human U937 cells stimulated with LPS
[3] = Homo sapiens, U-937, TNF production in human U937 cells stimulated with LPS
[4] = Homo sapiens, TNF production in human U937 cells stimulated with LPS
[5] = Homo sapiens, U-937, TNF production, human U937 cells stimulated with LPS
[6] = TNF production, U937 cells stimulated with LPS
[7] = Homo sapiens, TNF production, U937 cells stimulated with LPS

T1 sequence (Q16539 whole entry): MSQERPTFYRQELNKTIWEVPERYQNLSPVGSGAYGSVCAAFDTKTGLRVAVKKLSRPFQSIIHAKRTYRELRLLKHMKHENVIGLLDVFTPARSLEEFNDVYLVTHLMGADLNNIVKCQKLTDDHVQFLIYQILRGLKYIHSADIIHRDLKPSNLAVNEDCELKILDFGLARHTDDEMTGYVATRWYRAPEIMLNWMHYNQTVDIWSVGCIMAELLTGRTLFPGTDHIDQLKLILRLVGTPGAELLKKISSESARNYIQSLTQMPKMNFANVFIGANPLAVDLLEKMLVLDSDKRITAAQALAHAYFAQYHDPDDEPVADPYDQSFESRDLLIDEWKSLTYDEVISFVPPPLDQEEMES

Structure (SMILES) | IC50 (human p38 kinase alpha) | IC50 [1, 5] | also measured
CC(NC(=O)c1cc(Cl)cc(Cl)c1)c1[nH]nc(-c2ccc(F)cc2)c1-c1ccncc1 (stereo not drawn) [Example B-0675] | 5420 nM |  | U937 Cell % inhib @ conc. (uM) [1, 2]: 3.0% @
CC(NC(=O)c1cccc(C#N)c1)c1[nH]nc(-c2ccc(F)cc2)c1-c1ccncc1 (stereo not drawn) [Example B-0676] | 2090 nM |  | U937 Cell % inhib @ conc. (uM) [1, 2]: 22.0% @
CC(NC(=O)c1cccc(C(F)(F)F)c1F)c1[nH]nc(-c2ccc(F)cc2)c1-c1ccncc1 (stereo not drawn) [Example B-0687] | 10100 nM |  | U937 Cell % inhib @ conc. (uM) [1, 2]: 15.0% @
Cc1cccc(C(=O)NC(C)c2[nH]nc(-c3ccc(F)cc3)c2-c2ccncc2)c1 (stereo not drawn) [Example B-0692] | 380 nM |  | U937 Cell % inhib @ conc. (uM) [1, 2]: 29.0% @
CC(NC(=O)c1cccc(F)c1)c1[nH]nc(-c2ccc(F)cc2)c1-c1ccncc1 (stereo not drawn) [Example B-0694] | 620 nM |  | U937 Cell % inhib @ conc. (uM) [1, 2]: 21.0% @
CC(NC(=O)c1ccccc1F)c1[nH]nc(-c2ccc(F)cc2)c1-c1ccncc1 (stereo not drawn) [Example B-0699] | 340 nM |  | U937 Cell % inhib @ conc. (uM) [1, 2]: 31.0% @
CC(NC(=O)c1ccc(C(F)(F)F)cc1)c1[nH]nc(-c2ccc(F)cc2)c1-c1ccncc1 (stereo not drawn) [Example B-0704] | 2190 nM |  | U937 Cell % inhib @ conc. (uM) [1, 2]: 29.0% @
CC(NC(=O)c1cccs1)c1[nH]nc(-c2ccc(F)cc2)c1-c1ccncc1 (stereo not drawn) [Example B-0705] | 440 nM |  | U937 Cell % inhib @ conc. (uM) [1, 2]: 21.0% @
COc1ccc(S(=O)(=O)NC(Cc2ccccc2)c2[nH]nc(-c3ccc(F)cc3)c2-c2ccncc2)cc1OC (stereo not drawn) [Example B-0722] | 70 nM |  | IC50 [1, 3]: > 1000 nM
CNC(=O)NC(Cc1ccccc1)c1[nH]nc(-c2ccc(F)cc2)c1-c1ccncc1 (stereo not drawn) [Example B-0730] | 250 nM |  | inhibition at 1 µM [1, 4]: 11%
CN(C(=O)NC(Cc1ccccc1)c1[nH]nc(-c2ccc(F)cc2)c1-c1ccncc1)c1ccccc1 (stereo not drawn) [Example B-0731] | 870 nM |  | IC50 [1, 3]: > 1000 nM
O=S(=O)(NC(Cc1ccccc1)c1[nH]nc(-c2ccc(F)cc2)c1-c1ccncc1)c1cccs1 (stereo not drawn) [Example B-0765] | 300 nM |  | inhibition at 1 µM [1, 4]: 29%
CNC(=O)NC(Cc1ccccc1)c1[nH]nc(-c2ccc(F)cc2)c1-c1ccncc1 (stereo not drawn) [Example B-0775] | 600 nM |  | IC50 [1, 3]: > 1000 nM
CN(C(=O)NC(Cc1ccccc1)c1[nH]nc(-c2ccc(F)cc2)c1-c1ccncc1)c1ccccc1 (stereo not drawn) [Example B-0776] | 900 nM |  | IC50 [1, 2]: > 1000 nM
O=C(NC(Cc1ccccc1)c1[nH]nc(-c2ccc(F)cc2)c1-c1ccncc1)C1CCCN1 (stereo not drawn) [Example B-0794] | 2900 nM |  | U937 Cell % inhib @ conc. (uM) [1, 2]: 2.0% @
O=C(NC(Cc1ccccc1)c1[nH]nc(-c2ccc(F)cc2)c1-c1ccncc1)C1CCCN1 (stereo not drawn) [Example B-0795] | 1900 nM |  | U937 Cell % inhib @ conc. (uM) [1, 2]: 11.0% @
O=C(NC(Cc1ccccc1)c1[nH]nc(-c2ccc(F)cc2)c1-c1ccncc1)c1ccc(F)cc1 (stereo not drawn) [Example B-0800] | 1010 nM | > 1000 nM | 
C=CCOC(=O)NC(Cc1ccccc1)c1[nH]nc(-c2ccc(F)cc2)c1-c1ccncc1 (stereo not drawn) [Example B-0801] | 670 nM | > 1000 nM | 
O=C(NC(Cc1ccccc1)c1[nH]nc(-c2ccc(F)cc2)c1-c1ccncc1)C1CC1 (stereo not drawn) [Example B-0805] | 710 nM | > 1000 nM | 
O=C(NC(Cc1ccccc1)c1[nH]nc(-c2ccc(F)cc2)c1-c1ccncc1)c1cccc(Br)c1 (stereo not drawn) [Example B-0806] | 3280 nM | > 1000 nM | 
O=C(NC(Cc1ccccc1)c1[nH]nc(-c2ccc(F)cc2)c1-c1ccncc1)c1ccno1 (stereo not drawn) [Example B-0808] | 3090 nM | > 1000 nM | 
CC(=O)OC(C)C(=O)NC(Cc1ccccc1)c1[nH]nc(-c2ccc(F)cc2)c1-c1ccncc1 (stereo not drawn) [Example B-0809] | 1220 nM |  | U937 Cell % inhib @ conc. (uM) [1, 6]: 7.0% @
COCC(=O)NC(Cc1ccccc1)c1[nH]nc(-c2ccc(F)cc2)c1-c1ccncc1 (stereo not drawn) [Example B-0810] | 1110 nM | > 1000 nM | 
COc1ccccc1C(=O)NC(Cc1ccccc1)c1[nH]nc(-c2ccc(F)cc2)c1-c1ccncc1 (stereo not drawn) [Example B-0811] | 2790 nM |  | inhibition at 1 µM [1, 7]: 2%
O=C(NC(Cc1ccccc1)c1[nH]nc(-c2ccc(F)cc2)c1-c1ccncc1)c1ccccc1C(F)(F)F (stereo not drawn) [Example B-0812] | 2120 nM | > 1000 nM | 
O=C(NC(Cc1ccccc1)c1[nH]nc(-c2ccc(F)cc2)c1-c1ccncc1)c1ccc(F)c(F)c1F (stereo not drawn) [Example B-0813] | 3020 nM | > 1000 nM | 

Structure (SMILES) | IC50 (human p38 kinase alpha) | IC50 [1, 5] | also measured
COc1ccc(CC(=O)NC(Cc2ccccc2)c2[nH]nc(-c3ccc(F)cc3)c2-c2ccncc2)cc1OC (stereo not drawn) [Example B-0815] | 2110 nM | > 1000 nM | 
COc1ccc(CC(=O)NC(Cc2ccccc2)c2[nH]nc(-c3ccc(F)cc3)c2-c2ccncc2)cc1 (stereo not drawn) [Example B-0816] | 3460 nM | > 1000 nM | 
Cc1ccc(C(=O)NC(Cc2ccccc2)c2[nH]nc(-c3ccc(F)cc3)c2-c2ccncc2)cc1 (stereo not drawn) [Example B-0818] | 4970 nM | > 1000 nM | 
O=C(NC(Cc1ccccc1)c1[nH]nc(-c2ccc(F)cc2)c1-c1ccncc1)c1ccccc1 (stereo not drawn) [Example B-0819] | 1080 nM | > 1000 nM | 
O=C(NC(Cc1ccccc1)c1[nH]nc(-c2ccc(F)cc2)c1-c1ccncc1)C1CCCC1 (stereo not drawn) [Example B-0820] | 1640 nM |  | inhibition at 1 µM [1, 7]: 3%
O=C(NC(Cc1ccccc1)c1[nH]nc(-c2ccc(F)cc2)c1-c1ccncc1)c1ccccn1 (stereo not drawn) [Example B-0823] | 2390 nM | > 1000 nM | 
CC(C)C(=O)NC(Cc1ccccc1)c1[nH]nc(-c2ccc(F)cc2)c1-c1ccncc1 (stereo not drawn) [Example B-0831] | 900 nM | > 1000 nM | 
O=C(NC(Cc1ccccc1)c1[nH]nc(-c2ccc(F)cc2)c1-c1ccncc1)C1CC1 (stereo not drawn) [Example B-0837] | 1960 nM |  | IC50 ([1]; TNF production, human U937 cells stimulated with LPS): > 1000 nM
CC(=O)OC(C)C(=O)NC(Cc1ccccc1)c1[nH]nc(-c2ccc(F)cc2)c1-c1ccncc1 (stereo not drawn) [Example B-0841] | 320 nM |  | U937 Cell % inhib @ conc. (uM) [1, 6]: 36.0% @
COc1ccccc1C(=O)NC(Cc1ccccc1)c1[nH]nc(-c2ccc(F)cc2)c1-c1ccncc1 (stereo not drawn) [Example B-0843] | 610 nM | > 1000 nM | 
O=C(NC(Cc1ccccc1)c1[nH]nc(-c2ccc(F)cc2)c1-c1ccncc1)c1ccccc1C(F)(F)F (stereo not drawn) [Example B-0844] | 400 nM |  | inhibition at 1 µM [1, 7]: 25%
COc1ccc(CC(=O)NC(Cc2ccccc2)c2[nH]nc(-c3ccc(F)cc3)c2-c2ccncc2)cc1OC (stereo not drawn) [Example B-0847] | 730 nM |  | inhibition at 1 µM [1, 7]: 21%
CNC(=O)CCC(NC(=O)C(C)C)c1[nH]nc(-c2ccc(F)cc2)c1-c1ccncc1 (stereo not drawn) [Example B-0863] | 810 nM |  | inhibition at 1 µM [1, 7]: 25%
CNC(=O)CCC(NC(=O)C1CC1)c1[nH]nc(-c2ccc(F)cc2)c1-c1ccncc1 (stereo not drawn) [Example B-0866] | 1380 nM |  | inhibition at 1 µM [1, 7]: 28%
CNC(=O)CCC(NC(=O)c1cccc(Br)c1)c1[nH]nc(-c2ccc(F)cc2)c1-c1ccncc1 (stereo not drawn) [Example B-0867] | 620 nM | > 1000 nM | 
CNC(=O)CCC(NC(=O)c1ccno1)c1[nH]nc(-c2ccc(F)cc2)c1-c1ccncc1 (stereo not drawn) [Example B-0869] | 4190 nM | > 1000 nM | 
CNC(=O)CCC(NC(=O)COC)c1[nH]nc(-c2ccc(F)cc2)c1-c1ccncc1 (stereo not drawn) [Example B-0870] | 3130 nM | > 1000 nM | 
CNC(=O)CCC(NC(=O)c1ccccc1OC)c1[nH]nc(-c2ccc(F)cc2)c1-c1ccncc1 (stereo not drawn) [Example B-0871] | 1900 nM | > 1000 nM | 
CNC(=O)CCC(NC(=O)Cc1cccc(OC)c1)c1[nH]nc(-c2ccc(F)cc2)c1-c1ccncc1 (stereo not drawn) [Example B-0872] | 3130 nM |  | inhibition at 1 µM [1, 7]: 3%
CNC(=O)CCC(NC(=O)c1ccc(C)cc1)c1[nH]nc(-c2ccc(F)cc2)c1-c1ccncc1 (stereo not drawn) [Example B-0873] | 6920 nM | > 1000 nM | 
CNC(=O)CCC(NC(=O)c1ccccc1F)c1[nH]nc(-c2ccc(F)cc2)c1-c1ccncc1 (stereo not drawn) [Example B-0874] | 1920 nM | > 1000 nM | 
CNC(=O)CCC(NC(=O)c1ccncc1)c1[nH]nc(-c2ccc(F)cc2)c1-c1ccncc1 (stereo not drawn) [Example B-0875] | 2130 nM |  | inhibition at 1 µM [1, 7]: 8%
CNC(=O)CCC(NS(=O)(=O)Cc1ccccc1)c1[nH]nc(-c2ccc(F)cc2)c1-c1ccncc1 (stereo not drawn) [Example B-0876] | 890 nM | > 1000 nM | 
CCS(=O)(=O)NC(CCC(=O)NC)c1[nH]nc(-c2ccc(F)cc2)c1-c1ccncc1 (stereo not drawn) [Example B-0877] | 1170 nM |  | inhibition at 1 µM [1, 7]: 13%
CNC(=O)CCC(NS(=O)(=O)c1ccccc1F)c1[nH]nc(-c2ccc(F)cc2)c1-c1ccncc1 (stereo not drawn) [Example B-0879] | 870 nM |  | inhibition at 1 µM [1, 7]: 1%
